Assay results reported in PubChem BioAssay (NCI).
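These data come from cells grown in 96-well plates and exposed to compound for 48 hours at five concentrations. The concentration for 50% growth inhibition is given as GI50. TGI denotes the concentration required for complete inhibition of growth.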

Tests used:
Experiment in all cases: inhibition of tumour cell growth, NCI panel, 48 h
[1] = test system: A498 renal
[2] = test system: K-562 leukemia
[3] = test system: LOX IMVI melanoma
[4] = test system: MDA-MB-231 breast
[5] = test system: NCI-H23 lung
[6] = test system: PC-3 prostate
[7] = test system: RXF 393 renal
[8] = test system: SF-295 CNS
[9] = test system: SK-MEL-28 melanoma
[10] = test system: UACC-257 melanoma

SMILES | GI50 [1] [µM] | TGI [1] [µM] | GI50 [2] [µM] | TGI [2] [µM] | GI50 [3] [µM] | TGI [3] [µM] | GI50 [4] [µM] | TGI [4] [µM] | GI50 [5] [µM] | TGI [5] [µM] | GI50 [6] [µM] | TGI [6] [µM] | GI50 [7] [µM] | TGI [7] [µM] | GI50 [8] [µM] | TGI [8] [µM] | GI50 [9] [µM] | TGI [9] [µM] | GI50 [10] [µM] | TGI [10] [µM]
O=C(Nc1cccc(-n2cc(-c3ccncc3)c(-c3ccc(O)c(Cl)c3)n2)c1)c1cccc(C(F)(F)F)c1 | 3.44 | > 100 | 2.41 | > 100 | 2.35 | > 100 | 1.43 | 5.3 | 4.38 | > 100 | 3.62 | > 100 | 1.1 | 5.64 | 2.98 | > 100 | 4.63 | > 100 | 8.15 | > 100
N/C(=N\Nc1ccc(S(N)(=O)=O)cc1)c1cnccn1 | – | > 100 | – | > 100 | – | > 100 | – | > 100 | – | > 100 | – | > 100 | – | > 100 | – | > 100 | – | > 100 | – | > 100
CCC(CC(C)C)Nc1ccc(NC(CC)CC(C)C)cc1 (stereo not given) | 23.8 | 95.8 | 10.7 | 37.8 | 14.9 | 35.1 | 16.4 | 33.2 | 18.2 | 46.3 | 4 | 16.3 | 14.9 | 28.1 | 23 | 61.4 | 13.7 | 28.1 | 13.3 | 28.4
CC(C)C1(O)C(=O)N(c2c(F)c(F)c(F)c(F)c2F)C(=S)N1CCSc1ccccc1 (stereo not given) | – | 29.8 | – | 26.7 | – | 30.1 | – | 26.4 | – | 32.9 | – | 29.2 | – | 33.1 | – | 32.1 | – | 30.3 | – | 32.4
